Several values for one entry are separate records, joined by “and”; a condition that tells them apart may be missing. Equal values may be shown once.
Biological target: T1, wild-type mouse TMEM16A (Mus musculus, UniProt Q8BHY3)
T1 construct: expressed in transfected cells; host or cells: HEK293T
T1 sequence (Q8BHY3 1-960): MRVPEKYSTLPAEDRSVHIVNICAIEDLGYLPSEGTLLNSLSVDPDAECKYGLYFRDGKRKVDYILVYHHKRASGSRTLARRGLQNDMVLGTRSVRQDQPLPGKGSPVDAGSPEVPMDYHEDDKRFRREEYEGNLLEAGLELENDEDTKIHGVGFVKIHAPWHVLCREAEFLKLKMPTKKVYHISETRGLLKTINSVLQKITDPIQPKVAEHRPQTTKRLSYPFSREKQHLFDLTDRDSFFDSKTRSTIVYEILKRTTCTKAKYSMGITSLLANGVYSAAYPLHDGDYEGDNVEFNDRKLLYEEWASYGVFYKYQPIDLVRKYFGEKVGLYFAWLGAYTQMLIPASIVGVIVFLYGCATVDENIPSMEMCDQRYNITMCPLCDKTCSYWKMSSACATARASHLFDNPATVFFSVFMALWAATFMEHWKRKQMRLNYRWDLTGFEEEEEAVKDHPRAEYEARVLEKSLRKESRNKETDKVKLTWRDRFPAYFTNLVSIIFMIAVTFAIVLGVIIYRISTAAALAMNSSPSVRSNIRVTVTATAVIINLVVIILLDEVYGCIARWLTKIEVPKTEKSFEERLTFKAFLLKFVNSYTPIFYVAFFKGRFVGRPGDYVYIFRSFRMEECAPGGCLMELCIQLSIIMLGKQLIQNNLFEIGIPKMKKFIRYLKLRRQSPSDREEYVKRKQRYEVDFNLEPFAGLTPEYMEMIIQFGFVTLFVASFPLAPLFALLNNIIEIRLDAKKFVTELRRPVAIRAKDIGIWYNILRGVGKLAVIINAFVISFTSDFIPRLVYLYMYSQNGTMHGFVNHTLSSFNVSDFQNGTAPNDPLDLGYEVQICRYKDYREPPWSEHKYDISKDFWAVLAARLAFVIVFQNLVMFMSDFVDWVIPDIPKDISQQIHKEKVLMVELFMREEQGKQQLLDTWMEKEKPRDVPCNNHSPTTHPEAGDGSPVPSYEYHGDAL
Assay: Global fit of 1PBC inhibition profiles to an open-channel block mechanism
Assay type: cell-based
Source text: The inhibition profiles of 1PBC at different Ca^2+ concentrations were fitted to a mechanism assuming that the blocker preferentially binds to the open state. This was incorporated by adding a blocker binding step to the open state in a gating mechanism that we described previously[28] (Supplementary Fig. 9a). The matrix notation of this mechanism[73] is 4 Q=−k01−bk07v07^δb/2k0100000bk07v07^δb/2k10−k10−k12k12000000k21−k21−k23−k24k23k2400000k32−k32−k35v35^δCa/20k35v35^δCa/20000xk42v42^δCa/20−xk42v42^δCa/2−k45k4500000xk53v53^δCa/2k54−xk53v53^δCa/2−k54−k56v56^δCa/2k56v56^δCa/2000000xk65v65^δCa/2−xk65v65^δCa/20k70v70^δb/2000000−k70v70^δb/2 where x and b are the molar concentration of Ca^2+ and the blocker respectively, and the subscripts indicate the transition described by the rate constant k in s^−1, for example, k01 corresponds to the rate constant of the transition from state 0 to 1. δb and δCa are the fraction of membrane potential that modulates the corresponding transitions. […]
The equilibrium occupancy of states was calculated using[73],[74]7 P∞=P(0)(Vλ=0V^−1λ=0) where P(0) is the initial occupancy and V can be obtained from the Eigen decomposition of Q8 Q=VΛV^−1 and9 Λ=λ1⋱λnV=v11⋯vn1⋮⋱⋮v1n⋯vnn are the Eigenvalue and Eigenvector matrices respectively. The open probability calculated using Eq. 7 was used to compute the squared difference for each data point. […]

Apparent valence δb (fit at +80 and −80 mV): ~ 0.27 and 0.27 ± 0.025 | Kd (zero mV, read-out: Kd 1PBC (open state)): ~3.6 µM and 3.6 µM
Structure (SMILES): N#Cc1c(C(F)(F)F)cc(O)n2c1nc1ccccc12 [1PBC]

Reference: article PMC9120017, “Inhibition mechanism of the chloride channel TMEM16A by the pore blocker 1PBC” (Nature Communications, 2022)
